In ChEMBL document CHEMBL4002585, “Novel CLK1 inhibitors based on N-aryloxazol-2-amine skeleton - A possible way to dual VEGFR2 TK/CLK ligands” (Eur J Med Chem, 2017):
Each block holds one molecule with its values, some of them ahead of it.

Tests used:
[1] = Inhibition of Leishmania infantum MHOM/BR/82/BA-2 N-terminal His6-tagged GSK3 expressed in Escherichia coli BL21(DE3) using Biotin-labeled GSP-2 peptide substrate after 90 mins in presence of [gamma33-P]ATP by scintillation proximity assay
[2] = Inhibition of Trypanosoma brucei GSK3 using Biotin-labeled GSP-2 peptide substrate after 90 mins in presence of [gamma33-P]ATP by scintillation proximity assay
[3] = Inhibition of Leishmania major strain Friedlin endogenous GSK3 using Biotin-labeled GSP-2 peptide substrate after 90 mins in presence of [gamma33-P]ATP by scintillation proximity assay
[4] = Inhibition of Leishmania major strain Friedlin fusion protein GSK3 using Biotin-labeled GSP-2 peptide substrate after 90 mins in presence of [gamma33-P]ATP by scintillation proximity assay
[5] = molecular target: T1, Dual specificity protein kinase CLK1 (Homo sapiens, UniProt P49759); experiment: Inhibition of human CLK1 (148 to 484 residues) expressed in Escherichia coli BL21(DE3) preincubated for 10 mins followed by AFRREWSPGKEAKK substrate addition by pyruvate kinase and lactate dehydrogenase coupled enzyme assay
T1 sequence (P49759 whole entry, the tested form may be a part): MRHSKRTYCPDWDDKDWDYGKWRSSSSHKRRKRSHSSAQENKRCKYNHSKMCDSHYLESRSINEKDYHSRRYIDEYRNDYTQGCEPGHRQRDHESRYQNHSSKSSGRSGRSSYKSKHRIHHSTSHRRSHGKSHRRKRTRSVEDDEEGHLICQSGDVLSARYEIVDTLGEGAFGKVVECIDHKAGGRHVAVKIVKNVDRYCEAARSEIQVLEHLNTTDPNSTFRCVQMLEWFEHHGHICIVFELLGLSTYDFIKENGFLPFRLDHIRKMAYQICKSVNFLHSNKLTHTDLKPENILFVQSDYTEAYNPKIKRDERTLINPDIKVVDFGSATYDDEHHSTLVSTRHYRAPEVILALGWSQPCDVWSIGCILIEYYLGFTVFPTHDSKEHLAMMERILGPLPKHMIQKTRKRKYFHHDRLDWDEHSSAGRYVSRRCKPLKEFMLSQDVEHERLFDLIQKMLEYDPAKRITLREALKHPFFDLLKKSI

[6] = Inhibition of Leishmania major strain Friedlin N-terminal His6-tagged GSK3 expressed in Escherichia coli BL21(DE3) using Biotin-labeled GSP-2 peptide substrate after 90 mins in presence of [gamma33-P]ATP by scintillation proximity assay
[7] = Inhibition of GSK3 (unknown origin) using substrate after 30 mins in presence of [gamma-33P]ATP by liquid scintillation counting; design: species or system Homo sapiens
[8] = molecular target: Glycogen synthase kinase-3 (Homo sapiens, UniProt P49840+P49841); experiment: Inhibition of GSK3 alpha/beta (unknown origin) using substrate after 30 mins in presence of [gamma-33P]ATP by liquid scintillation counting; assay type: protein assay
[9] = molecular target: T1, Dual specificity protein kinase CLK1; experiment: Inhibition of human CLK1 using substrate after 30 mins in presence of [gamma-33P]ATP by liquid scintillation counting
[10] = molecular target: Dual specificity tyrosine-phosphorylation-regulated kinase 1A (Homo sapiens, UniProt Q13627); experiment: Inhibition of DYRK1A (unknown origin) using substrate after 30 mins in presence of [gamma-33P]ATP by liquid scintillation counting
CDK9/cyclin T1 = CDK9/cyclin T1 (Homo sapiens, UniProt P50750); experiment: Inhibition of CDK9/CyclinT (unknown origin) using substrate after 30 mins in presence of [gamma-33P]ATP by liquid scintillation counting; assay type: protein-complex assay
Sequence of CDK9/cyclin T1 (O60563 whole entry): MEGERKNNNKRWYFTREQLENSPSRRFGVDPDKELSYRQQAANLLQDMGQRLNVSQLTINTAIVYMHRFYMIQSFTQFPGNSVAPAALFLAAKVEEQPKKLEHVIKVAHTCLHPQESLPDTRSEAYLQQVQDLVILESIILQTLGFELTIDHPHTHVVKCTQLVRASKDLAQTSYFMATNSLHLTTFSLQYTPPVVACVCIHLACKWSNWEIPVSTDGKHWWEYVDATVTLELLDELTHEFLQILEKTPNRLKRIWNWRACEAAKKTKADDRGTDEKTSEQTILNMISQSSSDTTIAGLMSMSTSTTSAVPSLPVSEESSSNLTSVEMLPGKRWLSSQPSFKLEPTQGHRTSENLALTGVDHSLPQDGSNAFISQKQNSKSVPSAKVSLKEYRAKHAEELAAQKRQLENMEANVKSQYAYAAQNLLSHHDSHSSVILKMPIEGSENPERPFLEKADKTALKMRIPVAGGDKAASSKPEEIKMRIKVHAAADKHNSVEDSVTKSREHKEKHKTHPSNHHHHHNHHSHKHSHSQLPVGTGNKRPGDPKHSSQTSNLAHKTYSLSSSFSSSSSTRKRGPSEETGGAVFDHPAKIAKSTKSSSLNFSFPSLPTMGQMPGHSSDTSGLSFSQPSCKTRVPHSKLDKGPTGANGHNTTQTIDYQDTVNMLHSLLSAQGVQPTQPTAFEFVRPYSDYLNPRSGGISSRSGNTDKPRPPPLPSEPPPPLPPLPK
Sequence of CDK9/cyclin T1 (P50750 whole entry): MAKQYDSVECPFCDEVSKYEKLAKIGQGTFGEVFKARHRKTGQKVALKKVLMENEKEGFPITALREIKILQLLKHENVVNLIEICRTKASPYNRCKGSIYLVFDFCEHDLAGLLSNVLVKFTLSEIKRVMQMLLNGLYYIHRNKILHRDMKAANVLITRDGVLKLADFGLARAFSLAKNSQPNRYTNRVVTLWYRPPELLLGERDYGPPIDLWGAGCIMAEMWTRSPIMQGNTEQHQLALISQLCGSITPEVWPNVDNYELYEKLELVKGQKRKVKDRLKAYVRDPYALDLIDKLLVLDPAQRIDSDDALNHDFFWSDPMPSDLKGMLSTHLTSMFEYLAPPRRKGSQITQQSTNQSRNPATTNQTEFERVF

[11] = molecular target: Vascular endothelial growth factor receptor 2 (Homo sapiens, UniProt P35968); experiment: Inhibition of VEGFR2 (unknown origin) using substrate after 30 mins in presence of [gamma-33P]ATP by liquid scintillation counting
Sequence of Vascular endothelial growth factor receptor 2 (P35968 whole entry): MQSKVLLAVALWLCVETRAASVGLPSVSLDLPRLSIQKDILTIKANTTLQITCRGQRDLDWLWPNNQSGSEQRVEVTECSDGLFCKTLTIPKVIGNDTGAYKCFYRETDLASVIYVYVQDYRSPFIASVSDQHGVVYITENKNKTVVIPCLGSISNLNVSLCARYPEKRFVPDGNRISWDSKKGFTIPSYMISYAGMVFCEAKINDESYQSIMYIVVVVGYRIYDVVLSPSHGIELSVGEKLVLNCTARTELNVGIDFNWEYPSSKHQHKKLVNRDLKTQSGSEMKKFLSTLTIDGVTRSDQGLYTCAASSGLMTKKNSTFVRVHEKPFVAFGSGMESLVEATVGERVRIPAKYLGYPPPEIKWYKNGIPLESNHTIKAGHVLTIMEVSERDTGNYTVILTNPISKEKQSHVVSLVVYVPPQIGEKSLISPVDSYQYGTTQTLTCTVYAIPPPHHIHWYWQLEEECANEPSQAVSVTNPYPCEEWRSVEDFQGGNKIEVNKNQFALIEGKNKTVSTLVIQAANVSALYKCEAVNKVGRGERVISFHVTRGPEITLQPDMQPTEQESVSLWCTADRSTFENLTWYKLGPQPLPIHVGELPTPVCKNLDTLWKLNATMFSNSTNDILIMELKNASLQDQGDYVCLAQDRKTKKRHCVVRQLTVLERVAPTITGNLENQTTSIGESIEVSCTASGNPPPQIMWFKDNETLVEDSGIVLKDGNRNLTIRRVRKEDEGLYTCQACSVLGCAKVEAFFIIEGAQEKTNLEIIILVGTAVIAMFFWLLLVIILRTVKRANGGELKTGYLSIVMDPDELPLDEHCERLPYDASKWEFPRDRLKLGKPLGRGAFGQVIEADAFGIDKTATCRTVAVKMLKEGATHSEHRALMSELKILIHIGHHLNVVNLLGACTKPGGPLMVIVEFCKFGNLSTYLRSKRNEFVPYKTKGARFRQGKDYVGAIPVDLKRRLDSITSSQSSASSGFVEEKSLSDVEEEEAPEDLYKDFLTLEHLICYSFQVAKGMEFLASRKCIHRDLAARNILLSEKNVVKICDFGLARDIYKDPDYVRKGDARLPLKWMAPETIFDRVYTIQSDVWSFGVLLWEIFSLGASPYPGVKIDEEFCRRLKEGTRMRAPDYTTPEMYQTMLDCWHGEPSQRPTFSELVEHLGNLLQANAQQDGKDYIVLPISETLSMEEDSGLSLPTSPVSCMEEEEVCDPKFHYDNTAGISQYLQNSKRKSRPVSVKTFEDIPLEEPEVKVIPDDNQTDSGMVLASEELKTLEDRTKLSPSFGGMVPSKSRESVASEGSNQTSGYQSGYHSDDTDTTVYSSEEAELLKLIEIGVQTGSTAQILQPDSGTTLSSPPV

- IC50 [1]: 260 nM
- IC50 [3]: 180 nM
- IC50 [4]: 150 nM
- IC50 [5]: 8.9 nM
- IC50 [6]: 320 nM
Compound: Nc1nc(Nc2ccc(S(N)(=O)=O)cc2)nn1C(=S)Nc1c(F)cccc1F
- IC50 [2]: 120 nM

- IC50 [7]: 4 µM
- IC50 [8]: 7.5 µM
- IC50 [9]: 40 nM
- IC50 [10]: 7000 nM
- IC50 (CDK9/cyclin T1): 200 nM
Compound: CCS(=O)(=O)c1ccc(OC)c(Nc2ncc(/C=C/c3ccccc3)o2)c1

- IC50 [9]: 30 nM
- IC50 [10]: 500 nM
Compound: CCS(=O)(=O)c1ccc(OC)c(Nc2ncc(-c3cc4ccccc4s3)o2)c1

- IC50 [9]: 80 nM
- IC50 [11]: 23 nM
Compound: CCS(=O)(=O)c1ccc(OC)c(Nc2ncc(-c3ccc(CC#N)c(-c4ccccn4)c3)o2)c1

- IC50 [9]: 20 nM
- IC50 [10]: 1000 nM
Compound: CCS(=O)(=O)c1ccc(OC)c(Nc2ncc(-c3ccc4cc(OC)ccc4c3)o2)c1
